In the assay the target is T1, full-length SPA1 (Arabidopsis thaliana, UniProt Q9SYX2, R517E).
T1 construct: full length, strep-tagged (3x Flag also cloned), Pichia pastoris GS115, tags kept
T1 sequence (Q9SYX2 1-1029 R517E): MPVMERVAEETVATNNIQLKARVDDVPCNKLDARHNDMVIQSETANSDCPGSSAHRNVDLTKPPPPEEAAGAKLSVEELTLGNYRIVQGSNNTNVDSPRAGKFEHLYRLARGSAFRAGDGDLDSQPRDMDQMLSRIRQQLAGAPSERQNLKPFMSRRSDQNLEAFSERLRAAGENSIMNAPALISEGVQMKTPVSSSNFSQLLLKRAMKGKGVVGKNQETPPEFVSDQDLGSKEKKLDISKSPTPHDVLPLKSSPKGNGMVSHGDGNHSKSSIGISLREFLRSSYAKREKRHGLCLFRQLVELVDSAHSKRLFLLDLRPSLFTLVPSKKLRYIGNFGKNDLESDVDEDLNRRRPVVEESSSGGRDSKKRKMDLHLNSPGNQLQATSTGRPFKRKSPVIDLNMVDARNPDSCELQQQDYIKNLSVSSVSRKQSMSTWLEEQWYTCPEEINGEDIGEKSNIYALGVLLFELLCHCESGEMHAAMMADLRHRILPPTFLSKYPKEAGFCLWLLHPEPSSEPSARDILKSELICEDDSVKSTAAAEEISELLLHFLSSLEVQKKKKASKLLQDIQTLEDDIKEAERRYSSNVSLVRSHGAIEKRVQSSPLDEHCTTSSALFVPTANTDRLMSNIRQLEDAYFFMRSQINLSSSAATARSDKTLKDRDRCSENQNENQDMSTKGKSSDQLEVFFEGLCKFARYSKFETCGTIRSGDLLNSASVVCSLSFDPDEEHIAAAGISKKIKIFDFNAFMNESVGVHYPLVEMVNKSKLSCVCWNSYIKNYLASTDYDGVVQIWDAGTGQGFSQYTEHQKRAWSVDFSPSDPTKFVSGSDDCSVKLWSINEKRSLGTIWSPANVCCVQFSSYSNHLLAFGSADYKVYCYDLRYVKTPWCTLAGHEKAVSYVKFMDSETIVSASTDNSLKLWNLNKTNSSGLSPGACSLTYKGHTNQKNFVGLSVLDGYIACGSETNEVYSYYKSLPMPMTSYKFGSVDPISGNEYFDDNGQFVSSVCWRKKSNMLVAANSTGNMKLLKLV
Briefly: in vitro kinase assay, autoradiogram. In kind it is biochemical. Conditions: GST-PIF1 as co-substrate, 10 mM MgCl2, pH 7.5, 28 °C; labelled compound (gamma-32P).

In the case of `Nc1ncnc2c1ncn2[C@@H]1O[C@H](COP(=O)(O)OP(=O)(O)OP(=O)(O)O)[C@@H](O)[C@H]1O` [ATP], the “in vitro kinase assay, autoradiogram” value is recorded as “mSPA1 showed significantly reduced PIF1 phosphorylation compared to the wild type SPA1”.

For the origin of these results see publication PMC6746701, “A phyB-PIF1-SPA1 kinase regulatory complex promotes photomorphogenesis in Arabidopsis” (Nature Communications, 2019).
